Measurements reported in patent US20240324597A1, “Method For Spot-Treatment Application Against Weeds” (Monsanto Technology LLC, priority 2021, published 2024).

Tests used:
Assay type in all cases: in vivo
[1] = test system: Pepper plants (Capsicum frutescens L., CPSFR); assay: Crop injury after shielded spray around transplanted pepper plants (Example 3, Table 7)
Text: In a third set of trials pepper plants (Capsicum frutescens L., CPSFR) were manually transplanted at a growth stage of BBCH 13 in a field and grown until they reached BBCH growth stage of 14 or roughly 10 cm average crop height.
Application was made using a compressed air sprayer and a handheld 1 nozzle spray lance. The nozzle was shielded by a spray shield to prevent unintended spray drift during application. The application was made at damp soil conditions and calm wind around each single pepper plant. The crop plants were shielded from spray drift during application and spray slurry reached only the soil and weed cover surrounding the pepper plants.
(§1) […] The crop injury was rated were visually on a percentage scale in relation to the untreated control (100%=all plants dead; 50%=green plant biomass reduced by 50%, and 0%=no discernible difference=like control plot).

Soybeans (GLXMA) [2] = assay: Crop injury after spray with crop rows covered by rain gutters, soybeans (Example 2, Table 6); conditions: MSO + AMS
Text: In a second set of trials Soybeans (GLXMA) were planted in a standard planting system with 30 in row spacing and grown until they reached a BBCH growth stage of 11-12 or roughly 12 cm average height.
Application was made using a CO2 pressurized backpack sprayer and a handheld 6 nozzle boom, operating at 2.5 bar. The application was made at damp soil conditions and a windspeed of 0-15 km/h. The crop rows were covered during the actual spray application using upside down metal rain gutters (10 cm×10 cm depth×width) covering the crop and the soil below of about 5 cm on either side from the crop row center. All treatments included 1.5 L of a methylated seed oil (MSO) and 2 Kg/ha Ammonium sulfate (AMS) salt source and were mixed into 1 L fraction of an equivalent to 200 L/ha spray solution.
as §1

Soybeans (GLXMA) [3] = assay: Crop injury after hooded band spot-spray between crop rows, soybeans (Example 1, Table 5); conditions: 1440 g a.i./ha, MSO + AMS
Text: Sunflower (HELAN), Corn (ZEAMD) and Soybeans (GLXMA) were planted in a standard planting system with 30 in row spacing and grown until they reached a BBCH growth stage of 16-18; 12-13 and 14, respectively.
Application was made using a CO2 pressurized backpack sprayer and a handheld two nozzle boom, operating at 2.75 bar. Each of the nozzles (TeeJet Extended Air Induction nozzle 0015) was equipped with a plastic hood covering a 38 cm band left and right of each crop row and preventing unintended spray drift outside the band. The spray solution covered a band of roughly 38 cm on either side of the crop row with an average distance 8 cm to the row center and 2-10 cm distance between soil surface and lower end of the spray shield. The application was made at damp soil conditions and a windspeed of 0-10 km/h. All treatments included 1.5 L of an methylated seed oil (MSO) and 2 Kg/ha Ammonium sulfate (AMS) salt source and were mixed into 1 L fraction of an equivalent to 187 L/ha spray solution.
The crop injury assessments were conducted as visual assessments at 15, 28 and 45 days after application (DAA) in case of Sunflower and soybeans and at 14 and 27 DAA in case of com. Also in case of Table 5 assessments were done in soybeans at 15, 25 and 44 DAA. The crop injury was rated were visually on a percentage scale in relation to the untreated control (100%=all plants dead; 50% =green plant biomass reduced by 50%, and 0%=no discernible difference=like control plot).

Measured: Crop injury [% untreated]

C=CC1(C(=O)NC2COC(C(=O)OC)C2)CC(c2cc(F)cc(F)c2)=NO1 (mixture of isomers) [A 1.68]
0 % untreated: [1]; 100 g a.i./ha, 5 DAA | [1]; 100 g a.i./ha, 7 DAA | [1]; 100 g a.i./ha, 14 DAA | [1]; 150 g a.i./ha, 5 DAA | [1]; 150 g a.i./ha, 7 DAA | [1]; 150 g a.i./ha, 14 DAA | Soybeans (GLXMA) [2]; 100 g a.i./ha, 7 DAA | Soybeans (GLXMA) [2]; 100 g a.i./ha, 15 DAA | Soybeans (GLXMA) [2]; 100 g a.i./ha, 28 DAA | Soybeans (GLXMA) [2]; 100 g a.i./ha, 45 DAA | Soybeans (GLXMA) [2]; 200 g a.i./ha, 7 DAA | Soybeans (GLXMA) [2]; 200 g a.i./ha, 15 DAA | Soybeans (GLXMA) [2]; 200 g a.i./ha, 28 DAA | Soybeans (GLXMA) [2]; 200 g a.i./ha, 45 DAA

O=C(O)CNCP(=O)(O)O [Glyphosate, glyphosate, reference compound]
0 % untreated: Soybeans (GLXMA) [2]; 1440 g a.i./ha, 7 DAA | Soybeans (GLXMA) [2]; 1440 g a.i./ha, 15 DAA | Soybeans (GLXMA) [2]; 1440 g a.i./ha, 28 DAA | Soybeans (GLXMA) [2]; 1440 g a.i./ha, 45 DAA | Soybeans (GLXMA) [3]; 15 DAA | Soybeans (GLXMA) [3]; 25 DAA | Soybeans (GLXMA) [3]; 44 DAA
